Results reported in US8202563B2, “Acidulate composition and methods for making and utilizing the same” (Clabber Girl Corporation, priority 2008, dated 2012).

Test system: microbial growth (mold)
Experiment: 6-month storage test of flour tortillas, visual signs of microbial growth
Settings: flour tortillas with sodium propionate and potassium sorbate, acidulate 0.2832 weight %, stored at about 77° F., end of 6-month period
Description: The ingredients listed in Table 1 were combined at 100° F. The water and flour mixture was mixed for 2 minutes at a low speed with a dough hook. The dough was allowed to stand for 5 minutes and then divided into 50-gram balls that were heat pressed at 175° F. for 10 seconds. The raw tortillas were then baked on a griddle at 400° F. for 30 seconds on each side, and subsequently cooled.
Tortillas from each test batch were evaluated after baking for volume, eating quality, and microbial growth. Thereafter, tortilla specimens from of each batch were heat sealed in cellophane bags, bagged in ZIPLOCK® freezer pouches and stored at about 77° F. All test batches of tortilla samples were checked periodically for visual signs of microbial growth, volume reduction, and overall appearance over a 6-month period.

**Q.** With `O=C(O)/C=C/C(=O)O` [raw fumaric acid, fumaric acid] as the molecule, how does the “visual signs of microbial growth / mold on tortillas” value read?
**A.** visual signs of microbial growth, albeit to a lesser extent than the control tortillas
